Reference: paper PMC10535004, “Investigation of Peptides for Molecular Recognition of C-Reactive Protein–Theoretical and Experimental Studies” (Analytical Chemistry, 2023)
“Also recorded” adds a separate entry of the source.

T1: C-reactive protein (CRP) (Homo sapiens, UniProt P02741)
T1 construct: purchased Biorbyt (UK)
T1 sequence (P02741 19-224): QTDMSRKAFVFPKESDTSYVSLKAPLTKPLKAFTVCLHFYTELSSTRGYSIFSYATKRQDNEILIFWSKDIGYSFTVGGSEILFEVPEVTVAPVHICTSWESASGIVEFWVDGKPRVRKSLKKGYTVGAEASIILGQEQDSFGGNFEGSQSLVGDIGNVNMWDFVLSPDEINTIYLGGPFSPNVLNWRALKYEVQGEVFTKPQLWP

T2: C-reactive protein (human, UniProt P02741 19-224)
T2 construct: C-reactive protein (CRP), cyclic pentamer of five identical, noncovalently connected subunits of 206 amino acids each (printed); PDB 3PVO was used only for docking; also called CRP
T2 sequence (looked up): T1 sequence (P02741 19-224)

B1: P9 clone (M13 phage exposing the P9 peptide) (other)
chain: SWFSDWDLELHA
notes: peptide exposed on the M13 phage clone P9; also called P9 phage; source: M13 bacteriophage clone from phage display; not shown: M13 bacteriophage (peptide exposed on the phage)
B2: P3 clone (M13 phage exposing the P3 peptide) (other)
chain: VHWDFRQWWQPS
notes: peptide exposed on the M13 phage clone P3; the library is described in the Supporting Information; also called P3 phage; source: M13 bacteriophage clone from phage display; not shown: M13 bacteriophage (peptide exposed on the phage)
B3: P3 peptide (peptide)
peptide: VHWDFRQWWQPS
notes: 12-mer identified by phage display against CRP; immobilised on gold plates for PM-IRRAS, whose method is in the Supporting Information; also called peptide P3; source: synthetic peptide
B4: P2 peptide (peptide)
peptide: GGSDPEGMQGNY
notes: 12-mer identified by phage display against CRP; Immobilised on gold plates for PM-IRRAS; method is in the Supporting Information; also called peptide P2; source: synthetic peptide

Tests used:
[1] = TEM analysis of peptide fibers; type: physicochemical; details: 1 mg mL-1 in PBS
Method: 2. Surface characterisation
Suspensions of selected phages (10^9 pfu mL-1) in PBS and corresponding peptides (1 mg mL-1) in PBS were adsorbed onto carbon-coated copper grids (Sigma) for 3 min, stained with 1.5% uracyl acetate. The samples were photographed using Tecani Spirit BioTWIN microscope at 120kV, and images were processed by iTEM program. […]

[2] = PM-IRRAS of peptide layers on gold; type: physicochemical; details: for secondary structure on gold (in words): amide I band, peptide 100 μg mL-1 in PBS
Method: (§1) 2.2. PM-IRRS analysis (polarisation modulation infrared reflection absorption
(§2) Three types o f samples were prepared and analysed: (a) peptide solution in PBS (100 μg mL-1), (b)
(§3) CRP solution in PBS (50 μg mL-1), and (c) protein -peptide complex. The complex was prepared

C-reactive protein (CRP) = target: T1, C-reactive protein (CRP); assay: PM-IRRAS of protein-peptide complex on gold; type: binding; details: complex immobilized on gold; peptide 100 μg mL-1, CRP 50 μg mL-1 in PBS
Method: as §1, §2, §3

C-reactive protein [3] = target: T2, C-reactive protein; assay: ELISA; phage clones on CRP, phages detected by the enzymatic reaction of tagged anti-M13 antibodies, absorbance at 450 nm, compared with WT phage
C-reactive protein [4] = target: T2, C-reactive protein; assay: differential pulse voltammetry (electrochemical); P3 peptide covalently immobilised on TESPSA-silanised ITO, blocked with 1% BSA; 20 uL protein in PBS pH 7.4 for 30 min at room temperature; 1 mM Fc(CH2OH)2 in PBS as redox probe; drop of peak current fitted with the Hill equation, Kd = KA^n; details: both partners purified
C-reactive protein [5] = target: T2, C-reactive protein; assay: PM-IRRAS; peptides immobilised on gold plates; spectra of peptide, CRP and the protein-peptide complex compared; details: both partners purified
[6] = immobilized on gold, assuming helical conformation

Molecule | fiber structure of peptide (in words) [1] | secondary structure on gold (in words) [2] | peptide-CRP complex by PM-IRRAS (in words) (C-reactive protein (CRP)) | ELISA signal, fold over WT phage (C-reactive protein [3]) [fold] | other results
GGSDPEGMQGNY [P2] | loose fibers, which are unordered and without forming a specific structure | higher amount of disordered structures in the secondary structure | the P2-CRP complex is formed, but the effect of the P2 on the CRP secondary structure is different compared to P9 |  | orientation of helix axis (in words) [2, 6]: nearly parallel to the gold surface; amide I band position ([2]; peptide immobilized on gold): 1674 cm–1
SWFSDWDLELHA [P9] | The fibers self-assemble into unique structures called twisted nanoribbons | presence of β-sheets; also recorded: contains β and α or disordered peptide chains | the secondary structure of the complex may be affected |  | angle between the helical axis and the surface [2, 6]: about 48 °
B1 |  |  |  | 16 | 
B2 |  |  |  | 13 | 
B3 |  |  |  |  | Kd (C-reactive protein [4]): 35 ± 1.2 nM
B4 |  |  |  |  | binding result (C-reactive protein [5]): binds
